# Like-named read-outs stand apart in the source and are kept apart here.
# Legend:
# [1] = tested on: WT cells (Saccharomyces cerevisiae); experiment: Drug-drug interaction with α-PanAm, checkerboard / isobologram; assay type: cell-based; conditions: n=2
# Method: Clin. Microbiol. 43:140-143. The isobologram was produced by solving for the sum 50% fractional inhibitory concentration (ΣFIC50) using the equation: The data from the time-point where the 0 μg/mL terbinafine curve reached saturation was used to generate percent inhibition values, representing growth inhibition based on the concentration of terbinafine. This was done by dividing the value of interest by the untreated (0 μg/mL terbinafine) value, multiplying by 100 to get a percentage, and then subtracting that percentage from 100, representing 100% inhibition. The resulting values were used to create an inhibition curve, using the best fit function to generate an MIC50. […] The resulting MIC50 values were plugged into the ΣFIC50 equation, and the ΣFIC50 values were used to generate the curve.
# [2] = tested on: cab1^ts cells (Saccharomyces cerevisiae); experiment: Liquid growth assay in minimal medium, cab1ts yeast; assay type: cell-based; conditions: for relative time to mid-log phase in the presence vs. absence of the drug: 160 μg/mL terbinafine
# From the text: (§1) Yeast strains (Saccharomyces cerevisiae) used in this study are JS91.15-23 (MATα his3 leu2 trp1 ura3) and JS91.14-24 (MATa ura3 his3 cab1ts) (Olzhausen, et al., 2009, Curr Genet 55, 163-173). Wild type and mutant strains were propagated either in YPD medium (2% bacto-peptone, 2% D-(+)-glucose and 1% yeast extract) or defined pantothenic acid-free (minimal) medium composed of Yeast Nitrogen Base (MP Biomedicals), supplemented with Complete Supplement Mixture (MP Biomedicals) and all vitamins except pantothenic acid. Where indicated, media were supplemented with appropriate concentrations of pantothenic acid.
# (§2) Spotting assay were performed as follows. Pre-cultures of WT and cab1^ts yeast strains were prepared in YPD medium overnight at 30° C. Cells were harvested, washed, and diluted to 10^8 cells in 500 μL sterile water. Subsequent serial dilutions were made and 5 μL of cell suspensions were spotted on YPD agar plates lacking or supplemented with amorolfine 10 ng/mL, amphotericin B 1 μg/mL, fluconazole 10 μg/mL or terbinafine 10 μg/mL to achieve 10^6, 10^5, 10^4, 10^3, 10^2, and 10^1 cells per spot. Plates were incubated at 30° C. or 37° C. and imaged every 24 hours. For liquid assay in 96-well plate format, cells were pre-cultured overnight in liquid YPD medium at 30° C., washed three times in water and diluted to achieve 10^4 cells per well in 150 μL of minimal medium supplemented with 1 μM, 10 μM or 100 μM pantothenic acid and either lacking or supplemented with terbinafine (160 μg/ml). All plates were incubated at 30° C. Optical density measurements were taken with a BioTek SynergyMx microplate reader (OD630) every 8 hours for a total of 96 hours. Relative time to mid-log phase was calculated by first graphing growth curves of the varying concentrations of terbinafine for each concentration of pantothenic acid, and then determining the value at which the untreated curve reached saturation, and dividing it by 2 to represent the mid-log value. Dividing the time to mid-log phase of treated cells by the time to mid-log phase of untreated gave the relative time to mid-log phase.
# [3] = tested on: WT cells (Saccharomyces cerevisiae); experiment: Liquid growth assay in minimal medium, WT yeast; assay type: cell-based
# From the text: as §1, §2
# [4] = tested on: WT cells (Saccharomyces cerevisiae JS91.15-23); experiment: Spotting assay on YPD agar, WT yeast; assay type: cell-based; conditions: 30° C., 48 hours; amorolfine 10 ng/mL, fluconazole 10 μg/mL, terbinafine 10 μg/mL, amphotericin B 1 μg/mL
# From the text: as §1, §2
# [5] = tested on: cab1^ts cells (Saccharomyces cerevisiae JS91.14-24); experiment: Spotting assay on YPD agar, cab1ts yeast; assay type: cell-based; conditions: 30° C., 48 hours; amorolfine 10 ng/mL, fluconazole 10 μg/mL, terbinafine 10 μg/mL, amphotericin B 1 μg/mL
# From the text: as §1, §2
# yeast = conditions: cited from earlier work
# [6] = 1 μg/mL amphotericin B, 1 μM PA
Compound,drug-drug interaction pattern with α-PanAm (isobologram) [1],"growth of cab1^ts cells in liquid medium [2, 6]","relative time to mid-log phase in the presence vs. absence of the drug [3, 6]","growth of WT cells in liquid medium ([3]; 1 μg/mL amphotericin B, 100 μM PA)",growth of WT cells on YPD agar in the presence of the drug [4],growth of cab1^ts cells on YPD agar in the presence of the drug [5],relative time to mid-log phase in the presence vs. absence of the drug ([2]; 1 μM PA),relative time to mid-log phase in the presence vs. absence of the drug ([2]; 10 μM PA),relative time to mid-log phase in the presence vs. absence of the drug ([2]; 100 μM PA),"mid-log phase reached at (time) ([3]; 100 μM PA, single agent: squalene 100 μg/mL or terbinafine 80 μg/mL)","mid-log phase reached at (time) ([3]; 100 μM PA, terbinafine 80 μg/mL in the presence of 100 μg/mL squalene)","relative time to mid-log phase in the presence vs. absence of the drug ([3]; 160 μg/mL terbinafine, 1 μM PA)","relative time to mid-log phase in the presence vs. absence of the drug ([3]; 160 μg/mL terbinafine, 10 μM PA)","relative time to mid-log phase in the presence vs. absence of the drug ([3]; 160 μg/mL terbinafine, 100 μM PA)",MIC50 (yeast; medium supplemented with 1 μM pantothenic acid),MIC50 (yeast; medium with 100 nM pantothenic acid)
C[C@@H]1[C@H](O)[C@@H](C)/C=C/C=C/C=C/C=C/C=C/C=C/C=C/[C@H](O[C@@H]2O[C@H](C)[C@@H](O)[C@H](N)[C@@H]2O)C[C@@H]2O[C@](O)(C[C@@H](O)C[C@@H](O)[C@H](O)CC[C@@H](O)C[C@@H](O)CC(=O)O[C@H]1C)C[C@H](O)[C@H]2C(=O)O [amphotericin B],synergism,did not grow whatsoever,2.1,not significantly affected,only slightly inhibited,reduced dramatically,–,–,–,–,–,–,–,–,–,–
CN(C/C=C/C#CC(C)(C)C)Cc1cccc2ccccc12 [terbinafine],antagonism,–,–,–,greatly reduced,not affected,1.1,1.4,1.6,47 hours,61 hours,1.8,2.1,2.3,–,–
CC(CNC(=O)[C@H](O)C(C)(C)CO)C(=O)NCCc1ccccc1 (stereo partly drawn) [α-PanAm],–,–,–,–,–,–,–,–,–,–,–,–,–,–,~7.6 µg/mL,~1.9 µg/mL

# Source: patent US20230242538A1, “PanK Modulators and Methods Using Same” (YALE UNIVERSITY, priority 2020, published 2023)
